In patent publication US9006450B2 (Boehringer Ingelheim International GmbH, priority 2010, dated 2015):

target: T1, human ACC2 (Homo sapiens, UniProt O00763); test: ACC2 assay, spectrophotometric 384 well assay (NADH-linked, coupled lactate dehydrogenase/pyruvate kinase); format: biochemical; settings: ACC2 assay, hACC2 construct lacking 128 N-terminal amino acids, 25° C., 340 nm; read-out: IC50
T1 construct: made in house; host or cells: insect cells (baculoviral expression system)
Summary of the method: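 ADP output tracked via pyruvate kinase/lactate dehydrogenase NADH oxidation, slope at 340 nm over 15 min, 25° C, with 500 μM ATP and 200 μM each acetyl-CoA and NADH. Enzyme: insect-cell-expressed human ACC2, N-terminal 128 residues deleted; pH 7.5 Tris with citrate, KHCO3. IC50 from four-parameter regression versus vehicle and no-acetyl-CoA controls.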

T1 sequence (O00763 129-2458 limits assumed): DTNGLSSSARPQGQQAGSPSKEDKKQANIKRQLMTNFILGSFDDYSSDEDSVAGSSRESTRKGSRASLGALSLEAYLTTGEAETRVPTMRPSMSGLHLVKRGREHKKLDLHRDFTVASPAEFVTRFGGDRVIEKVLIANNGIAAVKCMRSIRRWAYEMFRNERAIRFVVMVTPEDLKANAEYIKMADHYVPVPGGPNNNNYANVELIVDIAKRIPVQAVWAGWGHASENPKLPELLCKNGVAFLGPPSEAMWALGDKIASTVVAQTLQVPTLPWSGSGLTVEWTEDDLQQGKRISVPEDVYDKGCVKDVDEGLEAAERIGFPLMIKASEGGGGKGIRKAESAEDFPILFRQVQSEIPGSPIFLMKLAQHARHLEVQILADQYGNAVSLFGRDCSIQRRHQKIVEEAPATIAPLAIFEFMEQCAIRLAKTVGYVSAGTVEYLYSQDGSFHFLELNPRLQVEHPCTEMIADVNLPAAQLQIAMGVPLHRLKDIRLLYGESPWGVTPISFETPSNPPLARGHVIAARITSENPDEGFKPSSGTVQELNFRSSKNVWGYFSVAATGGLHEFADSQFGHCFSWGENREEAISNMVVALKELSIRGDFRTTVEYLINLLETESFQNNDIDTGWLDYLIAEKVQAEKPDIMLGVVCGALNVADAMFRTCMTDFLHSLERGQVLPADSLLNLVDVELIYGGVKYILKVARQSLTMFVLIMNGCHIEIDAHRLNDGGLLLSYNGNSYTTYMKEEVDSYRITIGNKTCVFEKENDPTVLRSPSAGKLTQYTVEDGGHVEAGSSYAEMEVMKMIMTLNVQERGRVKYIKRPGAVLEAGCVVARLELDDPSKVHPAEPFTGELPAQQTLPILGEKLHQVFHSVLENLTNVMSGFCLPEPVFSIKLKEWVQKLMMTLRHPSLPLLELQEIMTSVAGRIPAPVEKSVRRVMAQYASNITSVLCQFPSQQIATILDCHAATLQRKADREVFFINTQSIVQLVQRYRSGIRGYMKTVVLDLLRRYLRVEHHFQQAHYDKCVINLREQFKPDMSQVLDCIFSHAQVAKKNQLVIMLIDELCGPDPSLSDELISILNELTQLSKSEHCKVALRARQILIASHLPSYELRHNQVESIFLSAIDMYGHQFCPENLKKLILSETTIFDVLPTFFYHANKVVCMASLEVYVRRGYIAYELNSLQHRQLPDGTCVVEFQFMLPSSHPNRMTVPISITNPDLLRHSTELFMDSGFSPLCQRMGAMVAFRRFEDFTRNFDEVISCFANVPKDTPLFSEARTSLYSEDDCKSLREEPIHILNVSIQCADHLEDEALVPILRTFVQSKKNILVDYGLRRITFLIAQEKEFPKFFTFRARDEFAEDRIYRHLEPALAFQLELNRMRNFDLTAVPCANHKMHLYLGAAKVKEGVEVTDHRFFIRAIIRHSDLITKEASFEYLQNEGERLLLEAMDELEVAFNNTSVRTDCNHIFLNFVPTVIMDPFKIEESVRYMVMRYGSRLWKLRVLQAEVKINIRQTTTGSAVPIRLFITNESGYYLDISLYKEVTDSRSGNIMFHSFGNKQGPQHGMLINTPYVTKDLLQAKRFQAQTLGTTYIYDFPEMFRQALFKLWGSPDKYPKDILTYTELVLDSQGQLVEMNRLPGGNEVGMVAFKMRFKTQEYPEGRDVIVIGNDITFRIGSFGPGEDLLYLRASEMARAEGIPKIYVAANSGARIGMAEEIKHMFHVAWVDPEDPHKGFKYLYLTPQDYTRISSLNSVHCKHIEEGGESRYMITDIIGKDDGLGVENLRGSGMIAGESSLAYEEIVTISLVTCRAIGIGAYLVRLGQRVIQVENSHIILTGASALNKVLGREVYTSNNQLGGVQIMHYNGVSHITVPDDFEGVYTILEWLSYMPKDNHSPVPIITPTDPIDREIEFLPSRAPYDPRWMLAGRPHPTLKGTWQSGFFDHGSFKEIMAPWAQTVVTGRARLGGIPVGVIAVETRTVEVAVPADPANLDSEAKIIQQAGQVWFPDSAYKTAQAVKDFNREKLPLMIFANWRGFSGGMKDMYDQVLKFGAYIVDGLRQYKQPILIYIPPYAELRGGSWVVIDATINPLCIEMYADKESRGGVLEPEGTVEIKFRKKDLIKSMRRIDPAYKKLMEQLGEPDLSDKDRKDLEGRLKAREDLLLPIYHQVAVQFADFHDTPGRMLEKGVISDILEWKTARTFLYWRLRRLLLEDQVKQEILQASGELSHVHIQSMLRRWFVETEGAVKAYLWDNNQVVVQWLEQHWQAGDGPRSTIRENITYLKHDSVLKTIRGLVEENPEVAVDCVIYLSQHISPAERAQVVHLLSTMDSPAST

Row | SMILES | IC50 [nM]
1 | CSc1ccc(-c2cnc(N3CCC(c4ccc([C@H](C)NC(C)=O)cc4)CC3)nc2)c(C(F)(F)F)c1 [Example 10.77] | 1600
2 | CC(=O)N[C@@H](C)c1ccc(C2CCN(c3ncc(-c4ccc(O)c(Cl)c4)cn3)CC2)cc1 [Example 10.78] | 200
3 | CC(=O)N[C@@H](C)c1ccc(C2CCN(c3ncc(-c4cncc(C#N)c4)cn3)CC2)cc1 [Example 10.79] | 1100
4 | CC(=O)N[C@@H](C)c1ccc(C2CCN(c3ncc(-c4cccc(C#N)c4)cn3)CC2)cc1 [Example 10.80] | 140
5 | CC(=O)N[C@@H](C)c1ccc(C2CCN(c3ncc(-c4ccc(N(C)C)nc4)cn3)CC2)cc1 [Example 10.81] | 10400
6 | CC(=O)N[C@@H](C)c1ccc(C2CCN(c3ncc(-c4ccc(C#N)nc4)cn3)CC2)cc1 [Example 10.82] | 150
7 | CC(=O)N[C@@H](C)c1ccc(C2CCN(c3ncc(-c4cnc(C#N)nc4)cn3)CC2)cc1 [Example 10.83] | 1900
8 | CC(=O)N[C@@H](C)c1ccc(C2CCN(c3ncc(C4=CCOCC4)cn3)CC2)cc1 [Example 10.84] | 1300
9 | CC(=O)N[C@@H](C)c1ccc(C2CCN(c3ncc(-c4ccc(C(F)(F)F)nc4)cn3)CC2)cc1 [Example 10.85] | 2600
10 | CC(=O)N[C@@H](C)c1ccc(C2CCN(c3ncc(-c4ccc5[nH]ncc5c4)cn3)CC2)cc1 [Example 10.86] | 5900
11 | CC(=O)N[C@@H](C)c1ccc(C2CCN(c3ncc(-c4ccc5c(c4)OCO5)cn3)CC2)cc1 [Example 10.87] | 70
12 | CC(=O)N[C@@H](C)c1ccc(C2CCN(c3ncc(-c4ccc5occc5c4)cn3)CC2)cc1 [Example 10.88] | 30
13 | CC(=O)N[C@@H](C)c1ccc(C2CCN(c3ncc(-c4ccc5c(c4)CCCO5)cn3)CC2)cc1 [Example 10.90] | 350
14 | CC(=O)N[C@@H](C)c1ccc(C2CCN(c3ncc(-c4coc5ccccc45)cn3)CC2)cc1 [Example 10.91] | 170
15 | CC(=O)N[C@@H](C)c1ccc(C2CCN(c3ncc(-c4cccc5c4OCC5)cn3)CC2)cc1 [Example 10.92] | 370
16 | CC(=O)N[C@@H](C)c1ccc(C2CCN(c3ncc(C4=CCC5(CC4)OCCO5)cn3)CC2)cc1 [Example 10.93] | 4300
17 | CC(=O)N[C@@H](C)c1ccc(C2CCN(c3ncc(-c4cccnc4C)cn3)CC2)cc1 [Example 10.94] | 2300
18 | CC(=O)N[C@@H](C)c1ccc(C2CCN(c3ncc(-c4cnccc4C)cn3)CC2)cc1 [Example 10.95] | 2000
19 | CC(=O)N[C@@H](C)c1ccc(C2CCN(c3ncc(-c4ccco4)cn3)CC2)cc1 [Example 10.96] | 600
20 | CC(=O)N[C@@H](C)c1ccc(C2CCN(c3ncc(-c4ccccc4CC#N)cn3)CC2)cc1 [Example 10.97] | 8200
21 | C[C@H](NC(=O)C1CC1)c1ccc(C2CCN(c3ncc(-c4ccc5c(c4)CCO5)cn3)CC2)cc1 [Example 10.98] | 900
22 | C[C@H](NC(=O)N(C)C)c1ccc(C2CCN(c3ncc(-c4ccc5c(c4)CCO5)cn3)CC2)cc1 [Example 10.99] | 380
23 | Cc1cccc(-c2cnc(N3CCC(c4ccc([C@H](C)NC(=O)C5CC5)cc4)CC3)nc2)c1 [Example 10.100] | 90
24 | C[C@H](NC(=O)C1CC1)c1ccc(C2CCN(c3ncc(-c4ccc(F)cc4)cn3)CC2)cc1 [Example 10.101] | 80

Row | SMILES | IC50 [nM]
25 | C[C@H](NC(=O)C1CC1)c1ccc(C2CCN(c3ncc(-c4ccc(C#N)cc4)cn3)CC2)cc1 [Example 10.102] | 240
26 | C[C@H](NC(=O)C1CC1)c1ccc(C2CCN(c3ncc(-c4ccccc4F)cn3)CC2)cc1 [Example 10.103] | 560
27 | C[C@H](NC(=O)C1CC1)c1ccc(C2CCN(c3ncc(-c4ccoc4)cn3)CC2)cc1 [Example 10.104] | 170
28 | C[C@H](NC(=O)C1CC1)c1ccc(C2CCN(c3ncc(-c4ccccc4)cn3)CC2)cc1 [Example 10.105] | 100
29 | Cc1cccc(-c2cnc(N3CCC(c4ccc([C@H](C)NC(=O)N(C)C)cc4)CC3)nc2)c1 [Example 10.107] | 110
30 | C[C@H](NC(=O)N(C)C)c1ccc(C2CCN(c3ncc(-c4ccc(F)cc4)cn3)CC2)cc1 [Example 10.108] | 90
31 | C[C@H](NC(=O)N(C)C)c1ccc(C2CCN(c3ncc(-c4ccc(C#N)cc4)cn3)CC2)cc1 [Example 10.109] | 90
32 | C[C@H](NC(=O)N(C)C)c1ccc(C2CCN(c3ncc(-c4ccccc4F)cn3)CC2)cc1 [Example 10.110] | 430
33 | C[C@H](NC(=O)N(C)C)c1ccc(C2CCN(c3ncc(-c4ccccc4)cn3)CC2)cc1 [Example 10.111] | 170
34 | Cc1ccc(-c2cnc(N3CCC(c4ccc([C@H](C)NC(=O)N(C)C)cc4)CC3)nc2)cc1 [Example 10.112] | 120
35 | C[C@H](NC(=O)N(C)C)c1ccc(C2CCN(c3ncc(-c4ccoc4)cn3)CC2)cc1 [Example 10.113] | 530
36 | CC(=O)N[C@@H](C)c1ccc(C2CCN(c3ncc(-c4ccc5cc[nH]c5c4)cn3)CC2)cc1 [Example 10.114] | 410
37 | COc1ccc2[nH]c(-c3cnc(N4CCC(c5ccc([C@H](C)NC(C)=O)cc5)CC4)nc3)cc2c1 [Example 10.115] | 410
38 | CC(=O)N[C@@H](C)c1ccc(C2CCN(c3ncc(-c4cc5ccc(C)cc5[nH]4)cn3)CC2)cc1 [Example 10.116] | 460
39 | CC(=O)N[C@@H](C)c1ccc(C2CCN(c3ncc(-c4cc5cc(C#N)ccc5[nH]4)cn3)CC2)cc1 [Example 10.117] | 680
40 | CC(=O)N[C@@H](C)c1ccc(C2CCN(c3ncc(-c4cccc5cc[nH]c45)cn3)CC2)cc1 [Example 10.118] | 150
41 | CC(=O)N[C@@H](C)c1ccc(C2CCN(c3ncc(-c4cc5ccccc5[nH]4)cn3)CC2)cc1 [Example 10.119] | 310
42 | CC(=O)N[C@@H](C)c1ccc(C2CCN(c3ncc(-c4cccc5[nH]ccc45)cn3)CC2)cc1 [Example 10.120] | 740
43 | CC(=O)N[C@@H](C)c1ccc(C2CCN(c3ncc(-c4ccc(C)cn4)cn3)CC2)cc1 [Example 10.121] | 110
44 | CC(=O)N[C@@H](C)c1ccc(C2CCN(c3ncc(-c4cc(C)ccn4)cn3)CC2)cc1 [Example 10.122] | 150
45 | CC(=O)N[C@@H](C)c1ccc(C2CCN(c3ncc(-c4cccc(CC#N)c4)cn3)CC2)cc1 [Example 10.123] | 420
46 | CCOc1ccc(-c2cnc(N3CCC(c4ccc([C@H](C)NC(C)=O)cc4)CC3)nc2)cc1C [Example 10.125] | 640
47 | CC(=O)N[C@@H](C)c1ccc(C2CCN(c3ncc(-c4ccc(OC(C)C)c(C)c4)cn3)CC2)cc1 [Example 10.126] | 1300
48 | COc1cc(C)c(-c2cnc(N3CCC(c4ccc([C@H](C)NC(C)=O)cc4)CC3)nc2)cc1C [Example 10.127] | 1600

Row | SMILES | IC50 [nM]
49 | COc1cc(-c2cnc(N3CCC(c4ccc([C@H](C)NC(C)=O)cc4)CC3)nc2)ccc1C#N [Example 10.128] | 140
50 | CC(=O)N[C@@H](C)c1ccc(C2CCN(c3ncc(-c4ccc(C)cc4F)cn3)CC2)cc1 [Example 10.129] | 340
51 | CC(=O)N[C@@H](C)c1ccc(C2CCN(c3ncc(-c4cccs4)cn3)CC2)cc1 [Example 10.130] | 40
52 | CC(=O)N[C@@H](C)c1ccc(C2CCN(c3ncc(CC(C)C)cn3)CC2)cc1 [Example 10.201] | 340
53 | CC(=O)N[C@@H](C)c1ccc(C2CCN(c3ncc(C4CC4)cn3)CC2)cc1 [Example 10.202] | 570
54 | CC(=O)N[C@@H](C)c1ccc(C2CCN(c3ncc(-c4ccccn4)cn3)CC2)cc1 [Example 10.203] | 160
55 | COc1cc(C)c(-c2cnc(N3CCC(c4ccc([C@H](C)NC(C)=O)cc4)CC3)nc2)c(C)c1 [Example 10.204] | 350
56 | CC(=O)N[C@@H](C)c1ccc(C2CCN(c3ccc(-c4ccc5[nH]ccc5c4)cn3)CC2)cc1 [Example 10.301] | 320
57 | CC(=O)N[C@@H](C)c1ccc(C2CCN(c3ncc(-c4ccc5[nH]ccc5c4)cc3F)CC2)cc1 [Example 10.302] | 430
58 | CC(=O)N[C@@H](C)c1ccc(C2CCN(c3nccc(C4CC4)c3C)CC2)cc1 [Example 10.303] | 160
59 | CC(=O)N[C@@H](C)c1ccc(C2CCN(c3ccc(C4CC4)cn3)CC2)cc1 [Example 10.304] | 750
60 | CC(=O)N[C@@H](C)c1ccc(C2CCN(c3ncc(C4CC4)cc3F)CC2)cc1 [Example 10.305] | 460
61 | CCOc1cccc(-c2ccc(N3CCC(c4ccc([C@H](C)NC(C)=O)cc4)CC3)nc2)c1 [Example 10.306] | 310
62 | CCOc1cccc(-c2cnc(N3CCC(c4ccc([C@H](C)NC(C)=O)cc4)CC3)c(F)c2)c1 [Example 10.307] | 310
63 | CC(=O)N[C@@H](C)c1ccc(C2CCN(c3ccc(-c4ccc(C#N)s4)cn3)CC2)cc1 [Example 10.308] | 80
64 | CC(=O)N[C@@H](C)c1ccc(C2CCN(c3ncc(-c4ccc(C#N)s4)cc3F)CC2)cc1 [Example 10.309] | 80
65 | CC(=O)N[C@@H](C)c1ccc(C2CCN(c3ccc(-c4ccc(F)cc4)cn3)CC2)cc1 [Example 10.310] | 40
66 | CC(=O)N[C@@H](C)c1ccc(C2CCN(c3ncc(-c4ccc(F)cc4)cc3F)CC2)cc1 [Example 10.311] | 180
67 | CC(=O)N[C@@H](C)c1ccc(C2CCN(c3ccc(-c4ccc5c(c4)OCO5)cn3)CC2)cc1 [Example 10.312] | 160
68 | CC(=O)N[C@@H](C)c1ccc(C2CCN(c3ncc(-c4ccc5c(c4)OCO5)cc3F)CC2)cc1 [Example 10.313] | 120
69 | CC(=O)N[C@@H](C)c1ccc(C2CCN(c3ccc(-c4ccc(C)cc4)cn3)CC2)cc1 [Example 10.314] | 280
70 | CC(=O)N[C@@H](C)c1ccc(C2CCN(c3ncc(-c4ccc(C)cc4)cc3F)CC2)cc1 [Example 10.315] | 120
